Values quoted from earlier work, collected in patent US10143659B2, “Melt-extruded release controlled pharmaceutical composition and oral dosage form comprising the same” (Samyang Biopharmaceuticals Corporation, priority 2012, dated 2018).

- solubility in methylene chloride, methanol and 0.1N hydrochloric acid (methylene chloride, methanol, 0.1N hydrochloric acid): well dissolved
- solubility in water (water): poorly soluble
Structure (SMILES): Cc1nc2n(c(=O)c1CCN1CCC(c3noc4cc(F)ccc34)CC1)CCCC2O (centres unmarked) [Paliperidone]
